{"source": "patent US7566808B2", "about": "“Management of ophthalmologic disorders, including macular degeneration” (President and Fellows of Harvard College, priority 2004, dated 2009)", "key": {"[1]": {"test_system": "bovine retinal pigment epithelial membrane system (11-cis-retinol formation)", "assay": "11-cis-retinol formation in RPE membranes (IMH activity / RPE65 function)", "type": "biochemical", "description": "A control reaction mixture without any inhibitor was also incubated at room temperature for 15 min. At the end of the 15 min incubation, all-trans-retinol [11-12-^3H2] (0.2 μM) was added to the reaction mixtures (100 mM Tris pH 8.0, […] of RPE protein, 0.2% BSA 100 μM of DPPC, 1 mM of DTT and 0.2 μM all-trans-retinol [11-12-^3H2]) and incubated at room temperature for 30 min. At the end of this 30 minutes of incubation, an aliquot of the reactions were quenched to verify the equal addition of all-trans-retinol [11,12-^3H2] and the effect of these inhibitors on LRAT. After this the control reaction mixture was incubated with atRA (60 & 6 μM), 13cRA (60 & 6 μM) or 4-HPR (60 & 6 μM) for 15 min. Now all the reaction mixtures were incubated with 30 μM of apo-rCRALBP (100 mM Tris pH 8.0, 7.7 μg of RPE protein, 0.2% BSA 100 μm of DPPC, 1 mM of DTT 30 μM apo-rCRALBP and 0.2 μM all-trans-retinol [11-12-^3H2]) at 37° C. for 30 minutes. At the end of this incubation period the 200 μL reaction mixture was quenched by the addition of 750 μL ice cold methanol after which 100 μL of 1M sodium chloride solution was added, and 500 μl hexane (containing butylated hydroxy toluene at 1 mg/mL) was added to effect extraction of the retinoids. The retinoids were analyzed as previously described (27). The amount of 11-cis-retinol formed was used as a measurement of IMH activity. All experiments were performed in triplicate and the average values of these measurements were used for analysis.\nA control reaction mixture without any inhibitor was also incubated at room temperature for 15 min. At the end of the 15 min incubation, all-trans-retinol [11-12-^3H2] (0.2 μM) was added to the reaction mixtures (100 mM Tris pH 8.0, 76.7 μg of RPE protein, 0.2% BSA 100 μM of DPPC, 1 mM of DTT and 0.2 μM all-trans-retinol [11-12-^3H2]) and incubated at room temperature for 30 min. […] The retinoids were analyzed as previously described (27). […]"}, "[2]": {"test_system": "abcr knockout mice", "assay": "In vivo A2E accumulation in abcr knockout mice", "details": "versus no drug", "description": "Effects on accumulation of A2E in abcr knockout mice by farnesyl decyl ketone and N-palmityl farnesimide were investigated. Mice were injected with 50 mg/kg drug in 25 microliters of DMSO or with only DMSO for the control group once or twice a week. After 2 to 2½ months, the mice were sacrificed, and A2E and iso-A2E were harvested and quantitated from 4 eyes for each drug or control."}, "[3]": {"test_system": "A2E formation from all-trans-retinal and ethanolamine", "assay": "In vitro A2E formation in the presence of aromatic amine", "description": "100 mg (355 μmoles) of all-trans-retinal was dissolved in 3 mL followed by the addition of 9.5 μL of glacial acetic acid 9.5 μL of ethanolamine (155 μmoles). This solution was aliquoted into 300 μL fractions. 3-aminoethylbenzoate (15.5 μmoles) was added to the samples at 0, 2, 3.75, 14, 16.25, 18.0833 19.917 23.75 and 48 hrs. […] The solutions were shaken at room temperature for 48 hrs. The solutions were then kept at −80° C. and 15 μL was diluted to 250 μL (methanol). The solutions (15 μL) were then analyzed on a reverse phase (C18-5 μm-4.6 mm×150 mm) column on a linear gradient 85%-96% methanol/water and UV detector at 430 nm to determine the amount of A2E formation. The percent A2E formation was compared to A2E formation at 48 h in the absence of aromatic amine."}, "[4]": {"target": "T1, tLRAT (Homo sapiens, UniProt O95237)", "T1 construct": "This form of LRAT has the two N and C-terminal transmembrane domains of LRAT truncated, and is His-tagged; made in house", "T1 sequence (O95237 31-196 limits assumed)": "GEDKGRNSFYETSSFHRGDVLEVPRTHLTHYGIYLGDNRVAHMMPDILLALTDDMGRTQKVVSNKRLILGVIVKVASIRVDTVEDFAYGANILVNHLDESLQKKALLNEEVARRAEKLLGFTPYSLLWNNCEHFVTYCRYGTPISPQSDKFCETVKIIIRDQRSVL", "assay": "mRPE65 concentration-dependent esterification of vitamin A by tLRAT", "type": "biochemical", "details": "FIG. 11C", "description": "Effect of sRPE65 on tLRAT mediated esterification: The activity of LRAT was determined by monitoring the formation of tLRAT catalyzed retinyl esters from added all-trans-retinol [11,12-^3H2] sRPE65 and/or DPPC/dodecyl maltoside. In all of the studies reported here truncated LRAT (tLRAT) is used (Jahng et al., 2003b). This form of LRAT has the two N and C-terminal transmembrane domains of LRAT truncated, and is His-tagged which allows for the bacterial expression of LRAT and for its full purification (Bok et al., 2003). LRAT has never been purified and is not expressible in bacteria. Kinetic studies on LRAT and tLRAT show them to behave identically (Bok et al., 2003). […] The amount of all-trans-retinyl palmitate [11,12-^3H2] formed as determined by normal phase HPLC and was used as a measure of activity. […]\nmRPE65 concentration-dependent esterification of vitamin A: The effect of mRPE65 concentration on the rates of all-trans-retinyl palmitate formation was determined by monitoring the tLRAT catalyzed formation of all-trans-retinyl palmitate from added [11,12-^3H2]-all-trans-retinol and mRPE65. […] The amount of all-trans-retinyl palmitate [11,12-^3H2] formed as determined by normal phase-HPLC and was used as a measure of activity. The kinetic paramaters KM (Kapp) and N were calculated as described before (Segal 1993). […]"}}}
{"molecule": "CC1=C(/C=C/C(C)=C/C=C/C(C)=C/C(=O)O)C(C)(C)CCC1", "note": "[all-trans-retinoic acid]", "values": [{"measurement": "inhibition of 11-cis-retinol formation, membranes pre-incubated with vitamin A before inhibitor", "setting": "[1]; 60 μM, data not shown", "result": "not susceptible to inhibition"}]}
{"molecule": "CCCCCCCCCCCCCCCCNC(=O)C/C=C(\\C)CC/C=C(\\C)CCC=C(C)C", "note": "[N-Palmityl farnesimide, palmityl farnesimide]", "values": [{"measurement": "reduction of total accumulation", "setting": "[2]", "result": "about 47%"}]}
{"molecule": "CC1=C(/C=C/C(C)=C/C=C/C(C)=C/C(=O)Nc2ccc(O)cc2)C(C)(C)CCC1", "note": "[N-(4-hydroxyphenyl)retinamide]", "values": [{"measurement": "inhibition of 11-cis-retinol formation, pre-incubation with inhibitor", "setting": "[1]; 60 μM or 6 μM, pre-incubation before vitamin A, FIG. 8", "result": "substantially weaker"}]}
{"molecule": "CCCCCCCCCCC(=O)CC=C(C)CCC=C(C)CCC=C(C)C", "note": "[Farnesyl decyl ketone, farnesyl decyl ketone]", "values": [{"measurement": "reduction of total accumulation", "setting": "[2]", "result": "about 80%"}]}
{"molecule": "CCOC(=O)c1cccc(N)c1", "note": "[3-aminoethylbenzoate, ethyl 3-aminobenzoate]", "values": [{"measurement": "A2E % formation (48 Hrs = 100)", "setting": "[3]; amine added at 0 hrs", "result": 3.98, "unit": "%"}, {"measurement": "A2E % formation (48 Hrs = 100)", "setting": "[3]; amine added at 2 hrs", "result": 8.67, "unit": "%"}, {"measurement": "A2E % formation (48 Hrs = 100)", "setting": "[3]; amine added at 3.75 hrs", "result": 7.71, "unit": "%"}, {"measurement": "A2E % formation (48 Hrs = 100)", "setting": "[3]; amine added at 14 hrs", "result": 19.73, "unit": "%"}, {"measurement": "A2E % formation (48 Hrs = 100)", "setting": "[3]; amine added at 16.25 hrs", "result": 19.25, "unit": "%"}, {"measurement": "A2E % formation (48 Hrs = 100)", "setting": "[3]; amine added at 18.0833 hrs", "result": 23.70, "unit": "%"}, {"measurement": "A2E % formation (48 Hrs = 100)", "setting": "[3]; amine added at 19.91667 hrs", "result": 27.65, "unit": "%"}, {"measurement": "A2E % formation (48 Hrs = 100)", "setting": "[3]; amine added at 23.75 hrs", "result": 22.44, "unit": "%"}, {"measurement": "A2E % formation (48 Hrs = 100)", "setting": "[3]; amine added at 48 hrs", "result": 100.00, "unit": "%"}]}
{"molecule": "mRPE65: membrane-associated, palmitoylated form of RPE65; acts as palmitoyl donor for LRAT (protein, UniProt Q16518 2-533, looked up, palmitoylated membrane-associated form, membrane-associated, palmitoylated form of RPE65; acts as palmitoyl donor for LRAT) Retinoid isomerohydrolase: SIQVEHPAGGYKKLFETVEELSSPLTAHVTGRIPLWLTGSLLRCGPGLFEVGSEPFYHLFDGQALLHKFDFKEGHVTYHRRFIRTDAYVRAMTEKRIVITEFGTCAFPDPCKNIFSRFFSYFRGVEVTDNALVNVYPVGEDYYACTETNFITKINPETLETIKQVDLCNYVSVNGATAHPHIENDGTVYNIGNCFGKNFSIAYNIVKIPPLQADKEDPISKSEIVVQFPCSDRFKPSYVHSFGLTPNYIVFVETPVKINLFKFLSSWSLWGANYMDCFESNETMGVWLHIADKKRKKYLNNKYRTSPFNLFHHINTYEDNGFLIVDLCCWKGFEFVYNYLYLANLRENWEEVKKNARKAPQPEVRRYVLPLNIDKADTGKNLVTLPNTTATAILCSDETIWLEPEVLFSGPRQAFEFPQINYQKYCGKPYTYAYGLGLNHFVPDRLCKLNVKTKETWVWQEPDSYPSEPIFVSHPDALEEDDGVVLSVVVSPGAGQKPAYLLILNAKDLSEVARAEVEINIPVTFHGLFKKS", "values": [{"measurement": "Hill plot N", "setting": "[4]", "result": 2.54}]}
